ChEMBL document CHEMBL4359816, “Discovery and Optimization of Quinolinone Derivatives as Potent, Selective, and Orally Bioavailable Mutant Isocitrate Dehydrogenase 1 (mIDH1) Inhibitors” (J Med Chem, 2019)
pIC50: −log10 of the molar value. Values after ≈ are worked out from the molar mass of the structure shown.

What was measured:
[1] = Kinetic solubility of the compound; format: physicochemical; details: read-out: Kinetic_solubility
[2] = target: Isocitrate dehydrogenase [NADP] cytoplasmic (Homo sapiens, UniProt O75874, R132S); assay: Inhibition of human Myc-DDK-tagged IDH1 R132S mutant expressed in human U87MG cells assessed as reduction in 2-HG levels after 24 hrs by RapidFire high-throughput mass spectrometry assay; format: cell-based
Chain of Isocitrate dehydrogenase [NADP] cytoplasmic (O75874 2-414 R132S limits assumed): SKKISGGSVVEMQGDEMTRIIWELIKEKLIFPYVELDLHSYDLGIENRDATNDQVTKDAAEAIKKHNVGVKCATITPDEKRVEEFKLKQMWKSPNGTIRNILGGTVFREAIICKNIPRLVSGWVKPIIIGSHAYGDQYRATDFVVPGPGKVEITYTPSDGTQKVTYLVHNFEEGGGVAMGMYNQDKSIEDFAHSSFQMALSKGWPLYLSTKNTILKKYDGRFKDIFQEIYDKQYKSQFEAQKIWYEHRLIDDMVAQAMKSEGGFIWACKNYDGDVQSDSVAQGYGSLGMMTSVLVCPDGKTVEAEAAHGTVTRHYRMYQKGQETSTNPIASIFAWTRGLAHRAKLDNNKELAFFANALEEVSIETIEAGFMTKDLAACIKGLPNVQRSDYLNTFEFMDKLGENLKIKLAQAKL

[3] = Apparent permeability of the compound across basolateral side to apical side in human Caco2 cells; format: ADME, cell-based; details: Caco-2
[4] = Apparent permeability from apical side to basolateral side in MDCK cells; format: ADME, cell-based, Canis lupus familiaris; details: dog
[5] = Protein binding in mouse plasma; format: ADME, cell-free; details: read-out: PPB (converted)
[6] = Protein binding in rat plasma; format: ADME, cell-free; details: read-out: PPB (converted)
[7] = Half-life in human hepatocytes; format: ADME, cell-based, Hepatocyte
[8] = fAUC (infinity) in rat at 1 mg/kg, iv or 5 mg/kg, po; format: ADME, organism-based; details: in vivo
[9] = Oral bioavailability in rat at 5 mg/kg; format: ADME, organism-based; details: in vivo
[10] = Clearance in mouse at 1 mg/kg, iv or 5 mg/kg, po; format: ADME, organism-based; details: in vivo
[11] = Half-life in dog at 0.5 mg/kg, iv; format: ADME, organism-based, Canis lupus familiaris; details: in vivo
[12] = fAUC (infinity) in dog at 0.5 mg/kg, iv; format: ADME, organism-based, Canis lupus familiaris; details: in vivo
[13] = Clearance in dog at 0.5 mg/kg, iv; format: ADME, organism-based, Canis lupus familiaris; details: in vivo
[14] = Free drug concentration in tumor of human HCT116 harboring R132C mutant xenografted in po dosed BALB/c nude mouse administered at 12 hrs intervals and measured after 4 to 24 hrs post last dose; format: ADME, organism-based, Neoplasm; details: in vivo
Mus musculus [15] = assay: In vivo inhibition of IDH1 R132C mutant in human HCT116 cells xenografted in BALB/c nude mouse assessed as reduction in tumor 2-HG level at 25 mg/kg, po bid administered at 12 hrs intervals and measured at <= 12 hrs post last dose by LC-MS analysis relative to control; format: functional; details: HCT-116, po
Mus musculus [16] = format: functional, BALB/c
[17] = target: Isocitrate dehydrogenase [NADP], mitochondrial (Homo sapiens, UniProt P48735, R172K); assay: Inhibition of IDH2 R172K mutant (unknown origin)
Chain of Isocitrate dehydrogenase [NADP], mitochondrial (Homo sapiens, UniProt P48735, R172K) (P48735 40-452 R172K limits assumed): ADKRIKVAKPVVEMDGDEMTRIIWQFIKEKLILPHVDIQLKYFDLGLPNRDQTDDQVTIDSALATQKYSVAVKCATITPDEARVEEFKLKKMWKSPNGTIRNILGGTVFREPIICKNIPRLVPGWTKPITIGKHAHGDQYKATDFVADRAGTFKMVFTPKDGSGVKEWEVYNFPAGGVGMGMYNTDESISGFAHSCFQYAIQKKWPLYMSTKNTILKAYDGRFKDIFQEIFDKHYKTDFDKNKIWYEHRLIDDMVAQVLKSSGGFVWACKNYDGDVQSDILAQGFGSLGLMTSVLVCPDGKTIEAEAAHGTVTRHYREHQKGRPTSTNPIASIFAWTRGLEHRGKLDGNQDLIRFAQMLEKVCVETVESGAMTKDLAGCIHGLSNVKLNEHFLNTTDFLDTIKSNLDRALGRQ

[18] = target: Isocitrate dehydrogenase [NADP], mitochondrial (Homo sapiens, UniProt P48735, R140Q); assay: Inhibition of IDH2 R140Q mutant (unknown origin)
Chain of Isocitrate dehydrogenase [NADP], mitochondrial (Homo sapiens, UniProt P48735, R140Q) (P48735 40-452 R140Q limits assumed): as the sequence (P48735 40-452 R172K limits assumed) above, with R101Q, K133R counted along it

CYP3A4 = CYP3A4 (Homo sapiens, UniProt P08684); assay: Inhibition of CYP3A4 (unknown origin) at 10 uM relative to control; format: ADME
Chain of CYP3A4 (P08684 whole entry): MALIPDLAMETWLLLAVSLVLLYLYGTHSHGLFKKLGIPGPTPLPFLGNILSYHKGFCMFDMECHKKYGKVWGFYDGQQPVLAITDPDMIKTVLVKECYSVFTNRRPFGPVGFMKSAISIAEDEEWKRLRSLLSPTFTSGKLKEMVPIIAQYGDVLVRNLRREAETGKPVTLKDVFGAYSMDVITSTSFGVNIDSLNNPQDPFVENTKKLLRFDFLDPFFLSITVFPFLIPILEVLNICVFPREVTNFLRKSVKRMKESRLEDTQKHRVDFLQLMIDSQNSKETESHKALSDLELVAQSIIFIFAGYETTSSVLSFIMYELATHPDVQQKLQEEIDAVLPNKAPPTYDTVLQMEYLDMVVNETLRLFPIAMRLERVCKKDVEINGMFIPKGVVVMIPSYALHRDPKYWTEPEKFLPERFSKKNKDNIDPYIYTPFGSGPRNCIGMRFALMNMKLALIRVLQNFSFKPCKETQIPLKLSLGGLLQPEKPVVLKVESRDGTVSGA

Cytochrome P450 3A4 [19] = target: T1, Cytochrome P450 3A4 (Homo sapiens, UniProt P08684); assay: Time dependent inhibition of CYP3A4 (unknown origin) at <5 uM pre-incubated for 30 mins followed by midazolam substrate addition in presence of NADPH; format: ADME
T1 sequence (P08684 whole entry): as above

Cytochrome P450 3A4 [20] = target: T1, Cytochrome P450 3A4; assay: Time dependent inhibition of CYP3A4 (unknown origin) at <5 uM pre-incubated for 30 mins followed by testosterone substrate addition in absence of NADPH; format: ADME
PXR = PXR (Homo sapiens, UniProt O75469); assay: Activation of PXR (unknown origin) stably expressed in human HepG2 cells at 10 uM relative to rifampicin; format: ADME, cell-based; details: HepG2 cells stably expressing PXR, read-out: Activity
Chain of PXR (O75469 whole entry): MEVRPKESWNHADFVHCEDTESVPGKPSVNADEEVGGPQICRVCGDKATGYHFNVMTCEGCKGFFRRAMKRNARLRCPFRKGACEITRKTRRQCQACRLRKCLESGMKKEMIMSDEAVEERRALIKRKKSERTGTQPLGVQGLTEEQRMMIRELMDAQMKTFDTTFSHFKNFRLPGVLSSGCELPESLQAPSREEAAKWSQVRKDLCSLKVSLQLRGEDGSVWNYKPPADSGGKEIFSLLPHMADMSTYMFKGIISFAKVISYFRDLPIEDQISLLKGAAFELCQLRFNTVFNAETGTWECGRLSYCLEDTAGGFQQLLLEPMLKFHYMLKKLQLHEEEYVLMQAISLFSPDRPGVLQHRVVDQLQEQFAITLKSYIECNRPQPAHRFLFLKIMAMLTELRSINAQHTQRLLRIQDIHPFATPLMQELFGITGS

[21] = target: NET (noradrenaline transporter) (Homo sapiens, UniProt P23975); assay: Displacement of [3H]nisoxetine from recombinant human NET receptor at 10 uM after 120 mins by scintillation counting method relative to control; details: probe [3H]nisoxetine
Chain of NET (noradrenaline transporter) (P23975 whole entry): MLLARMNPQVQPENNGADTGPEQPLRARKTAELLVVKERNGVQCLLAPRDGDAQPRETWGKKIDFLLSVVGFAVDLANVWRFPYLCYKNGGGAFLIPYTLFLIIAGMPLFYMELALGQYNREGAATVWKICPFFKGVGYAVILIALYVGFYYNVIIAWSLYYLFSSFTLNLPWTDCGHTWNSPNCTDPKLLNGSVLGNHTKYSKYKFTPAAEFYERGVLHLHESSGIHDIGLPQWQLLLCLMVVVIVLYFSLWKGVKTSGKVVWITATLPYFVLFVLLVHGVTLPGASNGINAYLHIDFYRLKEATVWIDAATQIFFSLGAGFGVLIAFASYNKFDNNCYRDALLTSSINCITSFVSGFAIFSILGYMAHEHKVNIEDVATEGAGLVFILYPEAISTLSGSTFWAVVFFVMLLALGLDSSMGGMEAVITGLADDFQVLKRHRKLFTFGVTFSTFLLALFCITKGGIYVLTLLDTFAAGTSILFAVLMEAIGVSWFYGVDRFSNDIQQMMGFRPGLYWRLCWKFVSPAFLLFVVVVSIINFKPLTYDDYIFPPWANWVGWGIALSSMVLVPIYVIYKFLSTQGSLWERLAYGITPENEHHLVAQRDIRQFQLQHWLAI

[22] = target: Voltage-gated inwardly rectifying potassium channel KCNH2 (Homo sapiens, UniProt Q12809); assay: Inhibition of human ERG by patch clamp method
Chain of Voltage-gated inwardly rectifying potassium channel KCNH2 (Q12809 whole entry): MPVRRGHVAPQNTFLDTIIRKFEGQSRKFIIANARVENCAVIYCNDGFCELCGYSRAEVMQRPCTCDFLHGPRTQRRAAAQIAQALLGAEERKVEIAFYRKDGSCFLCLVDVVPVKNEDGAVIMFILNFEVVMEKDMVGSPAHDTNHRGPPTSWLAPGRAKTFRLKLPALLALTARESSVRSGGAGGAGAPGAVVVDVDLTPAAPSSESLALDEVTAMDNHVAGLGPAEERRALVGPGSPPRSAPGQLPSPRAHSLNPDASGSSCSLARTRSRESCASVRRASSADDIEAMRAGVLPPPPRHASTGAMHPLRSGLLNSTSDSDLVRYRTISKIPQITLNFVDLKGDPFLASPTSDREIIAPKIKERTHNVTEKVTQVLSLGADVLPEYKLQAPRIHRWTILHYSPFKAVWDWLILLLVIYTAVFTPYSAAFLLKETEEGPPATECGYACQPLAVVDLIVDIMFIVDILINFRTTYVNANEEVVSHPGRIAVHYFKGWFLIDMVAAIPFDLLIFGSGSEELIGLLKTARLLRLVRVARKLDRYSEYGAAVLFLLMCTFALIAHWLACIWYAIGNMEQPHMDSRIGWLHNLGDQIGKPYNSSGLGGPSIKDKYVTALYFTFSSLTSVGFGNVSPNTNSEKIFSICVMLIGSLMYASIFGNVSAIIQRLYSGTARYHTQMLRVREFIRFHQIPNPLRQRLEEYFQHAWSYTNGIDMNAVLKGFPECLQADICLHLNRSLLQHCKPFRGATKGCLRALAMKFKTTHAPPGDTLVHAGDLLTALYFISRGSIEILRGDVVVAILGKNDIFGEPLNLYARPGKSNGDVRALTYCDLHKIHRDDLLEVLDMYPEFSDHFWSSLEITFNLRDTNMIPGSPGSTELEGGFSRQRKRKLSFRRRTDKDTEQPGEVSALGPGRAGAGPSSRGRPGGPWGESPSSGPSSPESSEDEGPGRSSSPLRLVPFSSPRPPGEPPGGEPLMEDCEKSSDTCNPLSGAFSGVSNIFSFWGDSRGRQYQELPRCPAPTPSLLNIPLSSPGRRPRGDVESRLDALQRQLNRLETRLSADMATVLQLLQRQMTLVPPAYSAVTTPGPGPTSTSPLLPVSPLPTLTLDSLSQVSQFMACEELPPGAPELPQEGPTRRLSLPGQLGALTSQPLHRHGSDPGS

[23] = Protein binding in mouse plasma assessed as unbound fraction; format: ADME, cell-free

## COc1nc(N[C@@H](C)c2cc3cc(Cl)ccc3[nH]c2=O)ncc1C#N
[1]
  solubility kinetic: 10.5 µM (≈ 3.74 µg/mL)
[2]
  pIC50: 5.83
[3]
  Papp B→A: 8.64 ×10⁻⁶ cm/s
[4]
  Papp A→B: 12.6 ×10⁻⁶ cm/s
[5]
  fraction unbound: 0.0193
[6]
  fraction unbound: 0.0203
[7]
  half-life: 4.32 h
[8]
  fAUC: 0.459 µM·h
[9]
  bioavailability: 81%
[10]
  clearance: 3.3 mL/min/kg
[11]
  half-life: 5.2 h
[12]
  fAUC: 0.123 µM·h
[13]
  clearance: 7.7 mL/min/kg
[14]
  Drug uptake(free): Dose-dependent effect
Mus musculus [15]
  inhibition in vivo at 25 mg/kg: > 90%
Mus musculus [16]
  fIC50: 49 nM
[17]
  pIC50: 4.47
[18]
  pIC50: 4.12
CYP3A4
  inhibition at 10 µM: 15.4%
Cytochrome P450 3A4 [19]
  TDI: Not Active
Cytochrome P450 3A4 [20]
  TDI: Not Active
PXR
  activity at 10 µM: 15%
[21]
  inhibition at 2 h, 10 µM: > 50%
[22]
  pIC50: 5.49
Homo sapiens
  Ratio IC50: 200
[23]
  fraction unbound: 0.019
